# Like-named read-outs stand apart in the source and are kept apart here.
# How the values were obtained:
# [1] = target: T1, platelet thrombin receptors (Homo sapiens, UniProt P25116); details: receptors activated by either thrombin or TRAP-1; cited from earlier work
# T1 construct: host or cells: platelets
# T1 sequence (P25116 22-425): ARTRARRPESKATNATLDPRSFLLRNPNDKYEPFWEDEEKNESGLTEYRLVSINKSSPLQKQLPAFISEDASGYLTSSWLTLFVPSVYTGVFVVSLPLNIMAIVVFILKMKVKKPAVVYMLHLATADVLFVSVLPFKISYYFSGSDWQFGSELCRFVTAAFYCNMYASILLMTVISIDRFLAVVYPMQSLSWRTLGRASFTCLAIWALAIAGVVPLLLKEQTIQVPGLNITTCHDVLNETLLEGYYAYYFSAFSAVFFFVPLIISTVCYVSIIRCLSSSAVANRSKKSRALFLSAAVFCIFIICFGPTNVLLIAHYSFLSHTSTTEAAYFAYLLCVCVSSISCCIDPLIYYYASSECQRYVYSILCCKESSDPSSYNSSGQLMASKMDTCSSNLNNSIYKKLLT
# [2] = tested on: platelets in whole blood activated by PAR-1 thrombin receptor activating peptide (TRAP-1); assay: VERIFYNOW IIb/IIIa Assay, dose-dependent platelet inhibition with TRAP-1 as platelet activator; assay type: cell-based, human; details: TRAP-1 3.7 μM; for % Inhibition, Average: Average of four human donors; for % Inhibition (platelet inhibition relative to baseline): whole blood, 30 min 37°C
# Excerpt: The VERIFYNOW™ System instrument is a turbidometric based optical detection system that measures platelet induced aggregation as an increase in light transmittance. The system includes an analyzer, disposable cartridge and controls. The cartridge contains reagents based on microparticle agglutination technology. The quality control system includes an electronic control, two levels of assayed “wet” controls (WQC), an in-cartridge humidity sensor, an in-packaging temperature indicator, and a test for concurrence of two assay channels. […] For use in the present methods the test cartridge of the system contains a lyophilized preparation comprising particles with passively bound GPIIb/IIIa receptor ligand, a thrombin receptor activator, and buffer. The patient sample is usually citrated whole blood, which is automatically dispensed from the blood collection tube into the cartridge by the analyzer, with no blood handling required by the user. The interaction is monitored by the infrared absorbency characteristics of the particles. As the particles interact with the platelets, the agglutination of the particles is measured through the optical system of the VERIFYNOW™ instrument. The agglutination is detected as an increase in the transmission of infrared light through the sample.
# An experiment was conducted to determine dose-dependent platelet inhibition by the PAR-1 antagonist E5555 (Eisai Co., Ltd.) using the VERIFYNOW™ IIb/IIIa Assay (Accumetrics, Inc., San Diego, Calif.) and PAR-1 thrombin receptor activating peptide (TRAP-1) as the platelet activator.
# Dose response testing was performed with TRAP-1 at 3.7 μM. E5555 was used at final concentrations of 30 ng/ml, 10 ng/ml, 5.0 ng/ml and 1.0 ng/ml. 20 μL of each stock solution was spiked into 2.0 ml of whole blood (1:100 dilution) and mixed carefully to prevent hemolysis. After mixing, the blood samples were incubated for 30 min at 37° C. prior to platelet inhibition test.
# Blood samples from four human donors were run in duplicate at baseline and for each of the four E5555 concentrations. As one might have expected, there was donor-to-donor variability in the levels of platelet inhibition measured at a given concentration of E5555. Based on the expected levels of inhibition at each concentration of E5555 provided, the actual results were on average slightly lower than expected across the four donors.
# [3] = tested on: platelets in whole blood activated by PAR-1 thrombin receptor activating peptide (TRAP-1); details: expected level of inhibition provided, cited from earlier work
# [4] = guinea pig thrombosis model; cited from earlier work
# [5] = rat balloon injury model; cited from earlier work
# [6] = rabbit subarachnoid hemorrhage model; cited from earlier work
# [7] = tested on: IL-6, CD40 ligand and P-selectin; details: human cells; cited from earlier work
# PAR-1 thrombin receptor = target: T2, PAR-1 thrombin receptor (Homo sapiens, UniProt P25116); details: cited from earlier work
# T2 sequence (P25116 22-425): T1 sequence (P25116 22-425)
# [8] = Phase II clinical studies, treated patients; cited from earlier work
# platelet aggregation = details: blood samples from patients undergoing non-urgent PCI; cited from earlier work
compound,measurement,setting,value
Phe-Leu-Leu-Arg-Asn (FLLRN; printed: Phe-Leu-Leu-Arg-Asn) [truncated TRAP-1 pentapeptide],antagonism of platelet thrombin receptors,[1],weak antagonist
CCOc1cc2c(c(F)c1OCC)C(=N)N(CC(=O)c1cc(N3CCOCC3)c(OC)c(C(C)(C)C)c1)C2 [E5555],"% Inhibition, Average",[2]; 1 ng/ml E5555,5%
same,"% Inhibition, Average",[2]; 5 ng/ml E5555,30%
same,"% Inhibition, Average",[2]; 10 ng/ml E5555,57%
same,"% Inhibition, Average",[2]; 30 ng/ml E5555,86%
same,% Inhibition (platelet inhibition relative to baseline),"[2]; Donor ID: 60, 1 ng/ml E5555",7%
same,% Inhibition (platelet inhibition relative to baseline),"[2]; Donor ID: 60, 5 ng/ml E5555",17%
same,% Inhibition (platelet inhibition relative to baseline),"[2]; Donor ID: 60, 10 ng/ml E5555",46%
same,% Inhibition (platelet inhibition relative to baseline),"[2]; Donor ID: 60, 30 ng/ml E5555",82%
same,% Inhibition (platelet inhibition relative to baseline),"[2]; Donor ID: 75, 1 ng/ml E5555",−1%
same,% Inhibition (platelet inhibition relative to baseline),"[2]; Donor ID: 75, 5 ng/ml E5555",15%
same,% Inhibition (platelet inhibition relative to baseline),"[2]; Donor ID: 75, 10 ng/ml E5555",39%
same,% Inhibition (platelet inhibition relative to baseline),"[2]; Donor ID: 75, 30 ng/ml E5555",78%
same,% Inhibition (platelet inhibition relative to baseline),"[2]; Donor ID: 126, 1 ng/ml E5555",5%
same,% Inhibition (platelet inhibition relative to baseline),"[2]; Donor ID: 126, 5 ng/ml E5555",51%
same,% Inhibition (platelet inhibition relative to baseline),"[2]; Donor ID: 126, 10 ng/ml E5555",77%
same,% Inhibition (platelet inhibition relative to baseline),"[2]; Donor ID: 126, 30 ng/ml E5555",97%
same,% Inhibition (platelet inhibition relative to baseline),"[2]; Donor ID: 137, 1 ng/ml E5555",7%
same,% Inhibition (platelet inhibition relative to baseline),"[2]; Donor ID: 137, 5 ng/ml E5555",35%
same,% Inhibition (platelet inhibition relative to baseline),"[2]; Donor ID: 137, 10 ng/ml E5555",66%
same,% Inhibition (platelet inhibition relative to baseline),"[2]; Donor ID: 137, 30 ng/ml E5555",88%
same,"% Inhibition, Expected",[3]; 1 ng/ml E5555,10-50%
same,"% Inhibition, Expected",[3]; 5 ng/ml E5555,40-80%
same,"% Inhibition, Expected",[3]; 10 ng/ml E5555,70-100%
same,"% Inhibition, Expected",[3]; 30 ng/ml E5555,100%
same,anti-thrombotic effect,[4],anti-thrombotic effect
same,effect on neointima hyperplasia,[5],inhibitory effects
same,effect on thrombin-induced contractile response,[6],inhibitory effects
same,"effect on thrombin-induced release or expression of inflammatory markers (IL-6, CD40 ligand, P-selectin)",[7],inhibitory effects
CCOC(=O)N[C@@H]1CC[C@@H]2[C@@H](C1)C[C@H]1C(=O)O[C@H](C)[C@H]1[C@H]2/C=C/c1ccc(-c2cccc(F)c2)cn1 [SCH 530348],inhibition of the PAR-1 thrombin receptor,PAR-1 thrombin receptor,potent inhibitor
same,bleeding time and coagulation times,[8],no increase in bleeding time or prolongation in coagulation times
same,inhibition of platelet aggregation,platelet aggregation,"sustained, dose-dependent, specific agonist-induced inhibition of platelet aggregation"

# Source: patent US20080299587A1, “METHODS OF MEASURING INHIBITION OF PLATELET AGGREGATION BY THROMBIN RECEPTOR ANTAGONISTS” (priority 2007, published 2008)
